In ChEMBL document CHEMBL2331252, “Facile one-pot synthesis of novel dispirooxindole-pyrrolidine derivatives and their antimicrobial and anticancer activity against A549 human lung adenocarcinoma cancer cell line” (Bioorg Med Chem Lett, 2013):
≈ marks a conversion by molar mass, not a printed value. Calls of active or inactive are those of the source. The rule behind the calls is not given here.

How the values were obtained:
[1] = tested on: Klebsiella pneumoniae; assay: Antibacterial activity against Klebsiella pneumoniae MTCC 109 after 24 hrs; format: functional; conditions: MTCC 109, 24 h
[2] = tested on: Klebsiella aerogenes; assay: Antibacterial activity against Enterobacter aerogenes MTCC 111 after 24 hrs; format: functional
[3] = tested on: Klebsiella pneumoniae; assay: Antibacterial activity against Klebsiella pneumoniae MTCC 109 at 1 mg/disc after 24 hrs by disc diffusion method; format: functional
[4] = tested on: A549; assay: Cytotoxicity against human A549 cells assessed as cell death at 100 ug/ml by MTT assay; format: functional
[5] = tested on: Staphylococcus aureus; assay: Antibacterial activity against methicillin-resistant Staphylococcus aureus at 1 mg/disc after 24 hrs by disc diffusion method; format: functional
[6] = tested on: Candida albicans; assay: Antifungal activity against Candida albicans MTCC 227 at 1 mg/disc after 48 hrs by disc diffusion method; format: functional
[7] = tested on: Klebsiella aerogenes; assay: Antibacterial activity against Enterobacter aerogenes MTCC 111 at 1 mg/disc after 24 hrs by disc diffusion method; format: functional
[8] = tested on: Micrococcus luteus; assay: Antibacterial activity against Micrococcus luteus MTCC 106 after 24 hrs; format: functional
[9] = tested on: Salmonella typhimurium; assay: Antibacterial activity against Salmonella typhimurium MTCC 1251 at 1 mg/disc after 24 hrs by disc diffusion method; format: functional, Salmonella enterica subsp. enterica serovar Typhimurium; conditions: for inhibition: Salmonella enterica subsp. enterica serovar Typhimurium
[10] = tested on: Micrococcus luteus; assay: Antibacterial activity against Micrococcus luteus MTCC 106 at 1 mg/disc after 24 hrs by disc diffusion method; format: functional
[11] = tested on: Salmonella typhimurium; assay: Antibacterial activity against Salmonella typhimurium MTCC 1251 after 24 hrs; format: functional, Salmonella enterica subsp. enterica serovar Typhimurium
[12] = tested on: Proteus vulgaris; assay: Antibacterial activity against Proteus vulgaris MTCC 1771 at 1 mg/disc after 24 hrs by disc diffusion method; format: functional
[13] = tested on: Staphylococcus aureus; assay: Antibacterial activity against methicillin-resistant Staphylococcus aureus after 24 hrs; format: functional
[14] = tested on: Shigella flexneri; assay: Antibacterial activity against Shigella flexneri MTCC 1457 after 24 hrs; format: functional; conditions: MTCC 1457, 24 h
[15] = tested on: Proteus vulgaris; assay: Antibacterial activity against Proteus vulgaris MTCC 1771 after 24 hrs; format: functional; conditions: MTCC 1771, 24 h
[16] = tested on: Staphylococcus aureus; assay: Antibacterial activity against Staphylococcus aureus MTCC 96 at 1 mg/disc after 24 hrs by disc diffusion method; format: functional
[17] = tested on: A549; assay: Cytotoxicity against human A549 cells assessed as cell death at 200 ug/ml by MTT assay; format: functional
[18] = tested on: A549; assay: Cytotoxicity against human A549 cells assessed as cell death by MTT assay; format: functional, cell-based
[19] = tested on: Candida albicans; assay: Antifungal activity against Candida albicans MTCC 227 after 48 to 72 hrs; format: functional
[20] = tested on: Staphylococcus aureus; assay: Antibacterial activity against Staphylococcus aureus MTCC 96 after 24 hrs; format: functional
[21] = Antifungal activity against Malassezia pachydermatis at 1 mg/disc after 48 hrs by disc diffusion method; format: functional
[22] = tested on: A549; assay: Cytotoxicity against human A549 cells assessed as cell death at 50 ug/ml by MTT assay; format: functional
[23] = tested on: Shigella flexneri; assay: Antibacterial activity against Shigella flexneri MTCC 1457 at 1 mg/disc after 24 hrs by disc diffusion method; format: functional
[24] = Salmonella enterica, MTCC 1251, 24 h
[25] = Salmonella enterica subsp. enterica serovar Typhimurium

| SMILES | MIC [1] [µg/mL] | inhibition zone (IZ) [3] [mm] | Activity [4] [%] | inhibition zone (IZ) [5] [mm] | inhibition zone (IZ) [9] [mm] | MIC [11, 24] [µg/mL] | inhibition zone (IZ) [12] [mm] | MIC [13] | MIC [14] [µg/mL] | MIC [15] [µg/mL] | inhibition zone (IZ) [16] [mm] | Activity [17] [%] | MIC [19] | MIC ([20]; MTCC 96, 24 h) [µg/mL] | inhibition [21] | Activity [22] [%] | inhibition zone (IZ) [23] [mm] | inhibition zone (IZ) [7] [mm] | MIC ([8]; MTCC 106, 24 h) [µg/mL] | inhibition zone (IZ) [10] [mm] | further results |
| --- | --- | --- | --- | --- | --- | --- | --- | --- | --- | --- | --- | --- | --- | --- | --- | --- | --- | --- | --- | --- | --- |
| C#CCN1C(=O)[C@@]2(c3ccccc31)N(C)C[C@](C#N)(C(=O)c1c[nH]c3ccccc13)[C@]21C(=O)Nc2ccccc21 | 62.5 (≈ 119 µM) | 14 | 59.31 | 8 | 9 | 500 (≈ 951 µM) | 10 | 500 µg/mL (≈ 951 µM) | 500 (≈ 951 µM) | 500 (≈ 951 µM) | 12 | 67.67 | inactive | 125 (≈ 238 µM) | inactive | 55.22 | 8 |  |  |  | MIC [2]: inactive; inhibition [6]: inactive; inhibition [7]: inactive; MIC [8]: inactive; inhibition [10]: inactive; IC50 [18]: 50 µg/mL (≈ 95.1 µM) |
| CN1C(=O)[C@@]2(c3cc(Cl)ccc31)N(C)C[C@](C#N)(C(=O)c1c[nH]c3ccccc13)[C@]21C(=O)Nc2ccccc21 | 125 (≈ 233 µM) | 10 | 12.98 | 10 | 9 | 500 (≈ 933 µM) | 11 | 500 µg/mL (≈ 933 µM) | 500 (≈ 933 µM) | 125 (≈ 233 µM) | 9 | 22.21 | inactive | 500 (≈ 933 µM) | inactive | 3.76 | 9 | 11 | 125 (≈ 233 µM) | 12 | MIC ([2]; MTCC 111, 24 h): 125 µg/mL (≈ 233 µM); inhibition [6]: inactive |
| CN1C(=O)[C@@]2(c3ccccc31)N(C)C[C@](C#N)(C(=O)c1c[nH]c3ccccc13)[C@]21C(=O)Nc2ccccc21 | 125 (≈ 249 µM) | 13 | 7.22 | 11 | 10 | 500 (≈ 997 µM) | 14 | 500 µg/mL (≈ 997 µM) | 250 (≈ 498 µM) | 125 (≈ 249 µM) | 13 | 13.99 | 250 µg/mL (≈ 498 µM) | 250 (≈ 498 µM) | inactive | 1.71 | 12 | 8 | 250 (≈ 498 µM) | 11 | MIC [2]: inactive; inhibition zone (IZ) [6]: 12 mm |
| CN1C[C@](C#N)(C(=O)c2c[nH]c3ccccc23)[C@]2(C(=O)Nc3ccccc32)C12C(=O)c1cccc3cccc2c13 (stereo not given in full) | 500 (≈ 957 µM) | 8 | 21.61 |  |  |  | 8 | inactive | 500 (≈ 957 µM) | 500 (≈ 957 µM) | 11 | 29.72 | 500 µg/mL (≈ 957 µM) | 125 (≈ 239 µM) | inactive | 7.55 | 9 | 10 | 500 (≈ 957 µM) | 9 | MIC ([2]; MTCC 111, 24 h): 500 µg/mL (≈ 957 µM); inhibition [5]: inactive; inhibition zone (IZ) [6]: 9 mm; inhibition [9]: inactive; MIC [11, 25]: inactive |
| CN1C(=O)[C@@]2(c3cc(F)ccc31)N(C)C[C@](C#N)(C(=O)c1c[nH]c3ccccc13)[C@]21C(=O)Nc2ccccc21 | 500 (≈ 962 µM) | 9 | 12.22 | 9 | 8 | 500 (≈ 962 µM) | 8 | 500 µg/mL (≈ 962 µM) | 500 (≈ 962 µM) | 500 (≈ 962 µM) | 10 | 25.51 | 500 µg/mL (≈ 962 µM) | 500 (≈ 962 µM) | inactive | 1.41 | 9 | 11 | 500 (≈ 962 µM) | 10 | MIC ([2]; MTCC 111, 24 h): 125 µg/mL (≈ 241 µM); inhibition zone (IZ) [6]: 9 mm |
| CN1C[C@](C#N)(C(=O)c2c[nH]c3ccccc23)[C@]2(C(=O)Nc3ccccc32)[C@@]12C(=O)N(Cc1ccccc1)c1ccccc12 | 125 (≈ 216 µM) | 11 | 16.03 | 9 |  |  | 9 | 500 µg/mL (≈ 866 µM) | 500 (≈ 866 µM) | 500 (≈ 866 µM) | 11 | 23.95 | 500 µg/mL (≈ 866 µM) | 125 (≈ 216 µM) |  | 9.26 | 7 | 10 | 500 (≈ 866 µM) | 9 | MIC ([2]; MTCC 111, 24 h): 500 µg/mL (≈ 866 µM); inhibition zone (IZ) [6]: 9 mm; inhibition [9]: inactive; MIC [11, 25]: inactive; inhibition zone (IZ) [21]: 10 mm |
| Cc1ccc2c(c1)[C@]1(C(=O)N2)N(C)C[C@](C#N)(C(=O)c2c[nH]c3ccccc23)[C@]12C(=O)Nc1ccccc12 | 500 (≈ 997 µM) | 9 | 56.34 | 10 | 10 | 500 (≈ 997 µM) | 10 | 500 µg/mL (≈ 997 µM) | 125 (≈ 249 µM) | 500 (≈ 997 µM) |  | 62.96 | inactive |  | inactive | 31.6 | 11 | 9 | 500 (≈ 997 µM) | 10 | MIC ([2]; MTCC 111, 24 h): 500 µg/mL (≈ 997 µM); inhibition [6]: inactive; inhibition [16]: inactive; MIC [20]: inactive |
